{"source": "ChEMBL document CHEMBL5233246", "about": "“CT1-3, a novel magnolol-sulforaphane hybrid suppresses tumorigenesis through inducing mitochondria-mediated apoptosis and inhibiting epithelial mesenchymal transition” (Eur J Med Chem, 2020)", "key": {"SGC-7901": {"system": "SGC-7901", "assay": "Antiproliferative activity against human SGC-7901 cells assessed as reduction in cell viability incubated for 24 hrs by CCK-8 assay", "format": "functional, cell-based", "conditions": "SGC-7901, 24 h"}, "NCI-H460 [1]": {"system": "NCI-H460", "assay": "Induction of apoptosis in human NCI-H460 cells assessed as increase in JNK phosphorylation level at 7.5 uM incubated for 24 hrs by western blot assay", "format": "functional, cell-based"}, "OVCAR-3": {"system": "OVCAR-3", "assay": "Inhibition of colony formation in human OVCAR-3 cells incubated for 48 hrs by Giemsa staining based microscopy", "format": "functional, cell-based"}, "A549 [2]": {"system": "A549", "assay": "Inhibition of cell migration in human A549 cells at 7.5 uM incubated for 24 hrs by crystal violet staining based transwell assay", "format": "functional"}, "LoVo [3]": {"system": "LoVo", "assay": "Antiproliferative activity against human LoVo cells assessed as reduction in cell viability incubated for 24 hrs by CCK-8 assay", "format": "functional, cell-based"}, "A549 [4]": {"system": "A549", "assay": "Antiproliferative activity against human A549 cells assessed as reduction in cell viability incubated for 24 hrs by CCK-8 assay", "format": "functional, cell-based", "conditions": "A549, 24 h"}, "A549 [5]": {"system": "A549", "assay": "Induction of apoptosis in human A549 cells assessed as late apoptotic cells at 10 uM incubated for 24 hrs by annexin V-FITC/propidium iodide staining based flow cytometry analysis (reference value: 0.8%)", "format": "functional"}, "[6]": {"assay": "Antiproliferative activity against human […] cells assessed as reduction in cell viability incubated for 24 hrs by CCK-8 assay", "format": "functional, cell-based"}, "LoVo [7]": {"system": "LoVo", "assay": "Inhibition of cell invasion in human LoVo cells at 7.5 uM incubated for 24 hrs by matrigel based transwell assay", "format": "functional"}, "LoVo [8]": {"system": "LoVo", "assay": "Induction of apoptosis in human LoVo cells assessed as early apoptotic cells at 10 uM incubated for 24 hrs by annexin V-FITC/propidium iodide staining based flow cytometry analysis (reference value: 1.3%)", "format": "functional"}, "NCI-H460 [9]": {"system": "NCI-H460", "assay": "Inhibition of colony formation in human NCI-H460 cells incubated for 48 hrs by Giemsa staining based microscopy", "format": "functional, cell-based"}, "HepG2": {"system": "HepG2", "assay": "Antiproliferative activity against human HepG2 cells assessed as reduction in cell viability incubated for 24 hrs by CCK-8 assay", "format": "functional, cell-based", "conditions": "HepG2, 24 h"}, "MDA-MB-231 [10]": {"system": "MDA-MB-231", "assay": "Antiproliferative activity against human MDA-MB-231 cells assessed as reduction in cell viability incubated for 24 hrs by CCK-8 assay", "format": "functional, cell-based", "conditions": "MDA-MB-231, 24 h"}, "NCI-H460 [11]": {"system": "NCI-H460", "assay": "Antiproliferative activity against human NCI-H460 cells assessed as reduction in cell viability incubated for 24 hrs by CCK-8 assay", "format": "functional, cell-based", "conditions": "NCI-H460, 24 h"}, "SW480": {"system": "SW480", "assay": "Inhibition of colony formation in human SW480 cells incubated for 48 hrs by Giemsa staining based microscopy", "format": "functional, cell-based"}, "NCI-H460 [12]": {"system": "NCI-H460", "assay": "Induction of apoptosis in human NCI-H460 cells assessed as decrease in XIAP protein expression level at 7.5 uM incubated for 24 hrs by western blot assay", "format": "functional, cell-based"}, "A549 [13]": {"system": "A549", "assay": "Induction of apoptosis in human A549 cells assessed as increase in ROS level at 10 uM incubated for 8 hrs by H2DCFDA staining based fluorescence microscopic assay", "format": "functional, cell-based"}, "[14]": {"assay": "Toxicity in BALB/c mouse xenografted with human MDA-MB-231 cells assessed as kidney pathological change at 20 mg/kg,ip measured after 28 days", "format": "organism-based", "conditions": "in vivo, 672 h, time 28 day"}, "AGS": {"system": "AGS", "assay": "Antiproliferative activity against human AGS cells assessed as reduction in cell viability incubated for 24 hrs by CCK-8 assay", "format": "functional, cell-based"}, "LoVo [15]": {"system": "LoVo", "assay": "Induction of apoptosis in human LoVo cells assessed as increase in JNK phosphorylation at 7.5 uM incubated for 24 hrs by western blot assay", "format": "functional, cell-based"}, "NCI-H460 [16]": {"system": "NCI-H460", "assay": "Induction of apoptosis in human NCI-H460 cells assessed as reduction of mitochondrial membrane potential at 10 uM incubated for 8 hrs by JC-1 staining based fluorescence microscopic assay", "format": "functional, cell-based"}, "A549 [17]": {"system": "A549", "assay": "Induction of apoptosis in human A549 cells assessed as reduction of mitochondrial membrane potential at 10 uM incubated for 8 hrs by JC-1 staining based fluorescence microscopic assay", "format": "functional, cell-based"}, "L02": {"system": "L02", "assay": "Cytotoxicity against human L02 cells assessed as reduction in cell viability incubated for 8 hrs by CCK-8 assay", "format": "toxicity, cell-based", "conditions": "l02, 8 h"}, "NCI-H460 [18]": {"system": "NCI-H460", "assay": "Induction of apoptosis in human NCI-H460 cells assessed as early apoptotic cells at 10 uM incubated for 24 hrs by annexin V-FITC/propidium iodide staining based flow cytometry analysis (reference value: 0.8%)", "format": "functional"}, "[19]": {"assay": "Toxicity in BALB/c mouse xenografted with human MDA-MB-231 cells assessed as liver pathological change at 20 mg/kg,ip measured after 28 days", "format": "organism-based", "conditions": "in vivo, 672 h, time 28 day"}, "HONE1 cell line": {"system": "HONE1 cell line", "assay": "Antiproliferative activity against human HONE1 cell line assessed as reduction in cell viability incubated for 24 hrs by CCK-8 assay", "format": "functional, cell-based", "conditions": "HONE1, 24 h"}, "A549 [20]": {"system": "A549", "assay": "Inhibition of colony formation in human A549 cells incubated for 48 hrs by Giemsa staining based microscopy", "format": "functional, cell-based"}, "LoVo [21]": {"system": "LoVo", "assay": "Induction of apoptosis in human LoVo cells assessed as increase in ROS level at 10 uM incubated for 8 hrs by H2DCFDA staining based fluorescence microscopic assay", "format": "functional, cell-based"}, "NCI-H1650": {"system": "NCI-H1650", "assay": "Inhibition of colony formation in human NCI-H1650 cells incubated for 48 hrs by Giemsa staining based microscopy", "format": "functional, cell-based"}, "MDA-MB-231 [22]": {"system": "MDA-MB-231", "assay": "Antitumor activity against human MDA-MB-231 cells xenografted in BALB/c mouse assessed as reduction in tumor growth at 20 mg/kg,ip measured after 28 days", "format": "functional, organism-based", "conditions": "time 28.0 day"}, "NCI-H1299": {"system": "NCI-H1299", "assay": "Antiproliferative activity against human NCI-H1299 cells assessed as reduction in cell viability incubated for 24 hrs by CCK-8 assay", "format": "functional, cell-based", "conditions": "NCI-H1299, 24 h"}, "LoVo [23]": {"system": "LoVo", "assay": "Induction of apoptosis in human LoVo cells assessed as decrease in XIAP protein expression level at 7.5 uM incubated for 24 hrs by western blot assay", "format": "functional, cell-based"}, "A549 [24]": {"system": "A549", "assay": "Induction of apoptosis in human A549 cells assessed as viable cells at 10 uM incubated for 24 hrs by annexin V-FITC/propidium iodide staining based flow cytometry analysis (reference value: 95.2%)", "format": "functional", "conditions": "read-out: Activity"}}, "note": "Calls of active or inactive are those of the source. No cut-off for these calls is given here."}
{"smiles": "C=CCc1ccc(O)c(-c2cc(CC=C)ccc2OCC[S+]([O-])CCCCN=C=S)c1", "note": "(stereo not drawn)", "values": [{"measurement": "IC50", "setting": "SGC-7901", "value": 11.5, "unit": "µM"}, {"measurement": "Activity", "setting": "NCI-H460 [1]", "value": "Active"}, {"measurement": "inhibition", "setting": "OVCAR-3", "value": "Active"}, {"measurement": "inhibition", "setting": "A549 [2]", "value": "Active"}, {"measurement": "IC50", "setting": "LoVo [3]", "value": 5.1, "unit": "µM"}, {"measurement": "IC50", "setting": "A549 [4]", "value": 9.07, "unit": "µM"}, {"measurement": "Activity", "setting": "A549 [5]", "value": 25.7, "unit": "%"}, {"measurement": "IC50", "setting": "[6]", "value": 9.56, "unit": "µM"}, {"measurement": "inhibition", "setting": "LoVo [7]", "value": "Active"}, {"measurement": "Activity", "setting": "LoVo [8]", "value": 16.7, "unit": "%"}, {"measurement": "inhibition", "setting": "NCI-H460 [9]", "value": "Active"}, {"measurement": "IC50", "setting": "HepG2", "value": 6.24, "unit": "µM"}, {"measurement": "IC50", "setting": "MDA-MB-231 [10]", "value": 7.48, "unit": "µM"}, {"measurement": "IC50", "setting": "NCI-H460 [11]", "value": 6.15, "unit": "µM"}, {"measurement": "inhibition", "setting": "SW480", "value": "Active"}, {"measurement": "Activity", "setting": "NCI-H460 [12]", "value": "Active"}, {"measurement": "Activity", "setting": "A549 [13]", "value": "Active"}, {"measurement": "Activity", "setting": "[14]", "value": "Non-Toxic"}, {"measurement": "IC50", "setting": "AGS", "value": 8.02, "unit": "µM"}, {"measurement": "Activity", "setting": "LoVo [15]", "value": "Active"}, {"measurement": "Activity", "setting": "NCI-H460 [16]", "value": "Active"}, {"measurement": "Activity", "setting": "A549 [17]", "value": "Active"}, {"measurement": "Activity", "setting": "L02", "value": "Non-Toxic"}, {"measurement": "Activity", "setting": "NCI-H460 [18]", "value": 8.2, "unit": "%"}, {"measurement": "Activity", "setting": "[19]", "value": "Non-Toxic"}, {"measurement": "IC50", "setting": "HONE1 cell line", "value": 14.1, "unit": "µM"}, {"measurement": "inhibition", "setting": "A549 [20]", "value": "Active"}, {"measurement": "Activity", "setting": "LoVo [21]", "value": "Active"}, {"measurement": "inhibition", "setting": "NCI-H1650", "value": "Active"}, {"measurement": "Activity", "setting": "MDA-MB-231 [22]", "value": "Active"}, {"measurement": "IC50", "setting": "NCI-H1299", "value": 9.17, "unit": "µM"}, {"measurement": "Activity", "setting": "LoVo [23]", "value": "Active"}, {"measurement": "viability at 10 µM", "setting": "A549 [24]", "value": 50.1, "unit": "%"}]}
